One data set concerns rat (HsdHan:WIST strain). The experiment in a line: GLP single dose intravenous bolus extended acute toxicology study in the rat. The data set is classed as in vivo. Conditions: dose levels 0, 0.25 and 1 mg/kg. As to the method: Two key studies were conducted to assure regulators of the safety of [^18F]FET-βAG-TOCA prior to first-in-human testing. A Good Laboratory Practice single dose intravenous bolus extended acute toxicology study in the rat (HsdHan^TM:WIST strain) was conducted with both [^19F]FET-βAG-TOCA and the propanyl-βAG-TOCA precursor. Animals were monitored throughout; day 2 (interim) and day 14 (termination) analysis were conducted. Dose levels of 0, 0.25 and 1 mg/kg of either test articles were tolerated in-life with no mortality. There were no effects on food consumption or body weight. Clinical pathology changes were noted but were not consistently seen in both sexes and were not associated with any pathological changes. A No Observed Adverse Effect Level (NOAEL) for both [^19F]FET-βAG-TOCA and propanyl-βAG-TOCA was considered to be 1.0 mg/kg. This study followed ‘approach 1’ given in the ICH M3 (R2) guideline to assess whether a single 50 μg (up to 100 μg) dose of the test article can be given to humans. The study design permitted a safety margin of 1000× the equivalent human dose to be established.

A further data set relates to Wistar rats. Conditions: in vivo, iv. As to the method:
While adhering to ALARP principles (As Low As Reasonably Practical), a rat dosimetry study was also conducted to enable initial prediction of human Effective Dose. Wistar rats were dosed with a single intravenous injection of [^18F]FET-βAG-TOCA and monitored up to 7 h. Effective Dose for both sexes were estimated at 0.03 mSv/MBq.

As for [^19F]FET-βAG-TOCA, in the data set on rat (HsdHan:WIST strain), the “Effects on food consumption or body weight” value is given as “no effects” and the Tolerability / mortality entry is given as “no mortality”.

Regarding “[^18F]fluoroethyltriazole-βAG-TOCA [Compound 7]”, the “Effective Dose predicted for humans from rat dosimetry” value in the data set with Wistar rats is on record as 0.03 mSv/MBq. As to propanyl-βAG-TOCA, in the data set with rat (HsdHan:WIST strain), the “Effects on food consumption or body weight” value was “no effects” and the Tolerability / mortality entry is “no mortality”.

These data come from paper PMC7226534, “[^18F]FET-βAG-TOCA: The Design, Evaluation and Clinical Translation of a Fluorinated Octreotide” (Cancers, 2020).
